Reference: patent US20100129344A1, “MEDICAL USES AND THERAPIES BASED UPON THE ACTION OF AZUROCIDIN ON IGFBP-1” (priority 2005, published 2010)
Entries after “also recorded” stand apart in the source; their conditions may differ. Like-named read-outs stand apart in the source and are kept apart here. Blank lines part the entries; values can stand above or below the molecule they belong to. Where a SMILES comes first, the peptide text is derived from it. [ ]: non-standard residue; d: D form. The star is where a group is joined. Sta = CC(C)C[C@H](N)[C@@H](O)CC(=O)O; Isovaleryl = CC(C)CC(=O)*

Assays:
[1] = tested on: urinary protease activity at neutral pH (IGFBP-1 proteolysis); assay: Effect of protease inhibitors, divalent cations and peptides on urinary protease activity at neutral pH (radioiodinated npIGFBP-1, SDS-PAGE, autoradiography); format: biochemical, human; settings: for effect on proteolysis in urine: not shown; for effect of peptides on IGFBP-1 proteolysis: increasing concentrations pre-incubated with npIGFBP-1 30 min 22 C, then 0.5 μl urine 2 h 37 C (FIG. 8A)
Experimental: A: Effect of 100 μM pepstatin A, 10 μM E64, 2.5 mM leupeptin, 10 mM PMSF, 100 μM aprotinin, 2.5 mM kallikrein inhibitor and benzamidine (mM) and chymostatin (μM). Molecular mass markers are indicated by the arrows. B: Densitometry measurements of intact IGFBP-1. The results are the mean±SEM, pooled from 6-8 experiments. […] The mean effect of urine pooled from all the experiments is shown in the open bar. *, P<0.05; ** P<0.01 (paired t-test);
(§1) Urine, 0.5 μl, was added and the incubation continued for 2 h at 37 C. The fragments were separated by 14% SDS-PAGE and detected by autoradiography. Molecular mass markers are indicated by the arrows. B: Biotinylated recombinant pIGFBP-1 was bound to streptavidin coated plates and then incubated without (open squares) or with 100 ng IGF-I (closed circles) or des(1-3)IGF-I (open circles). Wells were then incubated with increasing concentration of partially purified azurocidin at […] for 2-h at 37 C. After acidification of all wells, including controls, with 1 M HCl to dissociate bound peptides, radioiodinated IGF-I was added for 2 h at 22 C, unbound tracer was removed by washing, and the bound counts determined;
IGFBP-1 was radioiodinated with ^125I using the chloramine T method. After incubation without and with protease in phosphate buffered saline, pH 7 at 37 C, fragments were separated on 14% non-reducing SDS-PAGE, the gel dried, and visualized by autoradiography.

[2] = tested on: acid-activated IGFBP-1 protease activity in human urine; assay: Effect of pepstatin on urinary IGFBP-1 protease activity at pH 2 (streptavidin plate, IGF-II binding); format: biochemical; settings: pepstatin A 10 μM, pH 2, 5 μl urine, 2 h, 37 C
Experimental: (§2) A-D: Radioiodinated recombinant npIGFBP-1 was subjected to 14% SDS-PAGEalone (*) or after proteolysis for 2 h at 37 C with 0.5 μl urine or 0.25 μl eluate, and the fragments detected by autoradiography. Molecular mass markers are indicated by the arrows. A: pH-dependence of urinary IGFBP-1 protease activity. B: Urine, flowthrough (FT) from the heparin affinity column, and eluate at pH 2 and 7. C: pHdependence of eluate from heparin affinity chromatography. D: Acid-activated protease activity is destroyed by neutralization. Radioiodinated pIGFBP-1 was incubated without (*) and with 0.5 μl urine for 2 h at 37 C at pH 2. Prior to incubation the urine was either untreated (lane a), adjusted to pH 2 for 15 min (lane B) or adjusted to pH 2 for 15 min and then to pH 7 for a further 15 min (lane C). E: Effect of pepstatin. […] The wells were washed, incubated with radioiodinated IGF-II for 2 h at 22 C, washed, and the bound counts detected;
(§3) IGFBP-1 was biotinylated with sulfo-NHS-LC-LC-biotin and bound to streptavidin coated plates, then incubated without and with protease in phosphate buffered saline, pH 7 at 37 C. After washing, IGF-binding fragments were determined by incubation with radioiodinated IGF-I for 2 h at 22 C. Unbound tracer was removed by washing, and the bound counts determined.

[3] = tested on: neutral IGFBP-1 protease activity in human urine; assay: Effect of pepstatin on urinary IGFBP-1 protease activity at pH 7 (streptavidin plate, IGF-II binding); format: biochemical; settings: pepstatin A 10 μM, pH 7, 5 μl urine, 2 h, 37 C
Experimental: as §2, §3

[4] = tested on: MCF-7 human breast cancer cells; assay: 3H-Thymidine incorporation; format: cell-based; settings: IGF-II 10 ng/ml, 24 h, serum-free; 6 experiments
Experimental: Cell studies. MCF-7 human breast cancer cells were maintained in MEM alpha ribonucleic acid-free medium supplemented with 10% foetal bovine serum, 50 Unit/ml penicillin sodium, 50 μg/ml streptomycin sulfate and 2 mM L-glutamine at 37C in 5% CO2 humidified environment.
3H-Thymidine incorporation: Experiments were carried out in 48-well plates, at 70% confluence. After a 20-h incubation in serum-free medium supplemented with 0.1% BSA, the experimental conditions were added for a further 24 h, with ^3H-thymidine (1 μCi/ml) added for the last 4 h. Cells were then washed with ice-cold 0.9% NaCl three times and incubated with ice-cold 5% TCA for 15 min at 22 C. The fixed nucleotides were solubilized in 0.1M NaOH at 22 C and subjected to liquid scintillation counting.
Statistical analyses. The effect of IGF-II and IGFBP-1 in muscle cell culture was analyzed by two-way ANOVA. Where significant differences were observed, comparisons were made using the Tukey test. In the study using MCF-7 breast cancer cells the Wolcoxon Matched Pairs test was used. Statistical significance was set at P<0.05.

[5] = tested on: primary human skeletal myotubes; assay: 2-Deoxyglucose transport (glucose uptake); format: cell-based; settings: IGF-II 10 ng/ml (submaximal), 90 min
Experimental: Primary human skeletal myotubes were incubated under serum-free conditions for 24 h. Glucose uptake was determined as described in the Methods. The results are the mean±SEM of four experiments using cells from different individuals each with 3 replicates; and are expressed as the percentage of uptake in the absence of IGF-II or IGFBP-1 for each. The effect of IGF-II is shown in the hatched bars. The effect of pIGFBP-1 on stimulation of glucose uptake by 10 ng/ml IGF-II was analyzed by 2-way ANOVA for each of the 20 ng/ml and 80 ng/ml concentrations; *, P<0.01, **, P<0.001, compared to no IGF-II; ††, P<0.001, compared to no IGFBP-1 or intact IGFBP-1. […]
2-Deoxyglucose transport: Glucose uptake was performed as previously described for primary human muscle cells (Bouzakri et al, Diabetologia, 47, 1314-1323, 2004). […] Cells were then washed four times with pre-warmed buffer (150 mmol/l NaCl, […] KCl, 1.2 mmol/l MgSO4, 1.2 mmol/l CaCL2, 2.5 mmol/l NaH2PO4, 10 mmol/l HEPES, pH 7.4) and glucose uptake was measured for 15 min using [3H]2-deoxyglucose (50 μmol/l, 14,800 Bq/well). Results were expressed as the percentage of glucose uptake in the absence of IGF-II or IGFBP-1.
Statistical analyses. The effect of IGF-II and IGFBP-1 in muscle cell culture was analyzed by two-way ANOVA. […]

[6] = tested on: azurocidin-dependent protease activity; assay: Azurocidin-dependent protease activity on plate-bound biotinylated pIGFBP-1 with pre-bound peptides; format: biochemical, human; settings: 100 ng peptide on plate-bound pIGFBP-1, partially purified azurocidin, 2 h, 37 C (FIG. 8B)
Experimental: as §1, §3

[7] = 10 mM cation, pH 7, 0.5 μL urine, 2 h, 37 C

Molecule: c1cnc2c(c1)ccc1cccnc12 [1,10-phenothroline]
effect on the degree of IGFBP-1 degradation ([1]; data not shown): no effect

Molecule: [Ca+2].[Cl-].[Cl-] [CaCl2]
effect of divalent metal cations on proteolysis (densitometry of intact IGFBP-1) [1, 7]: significant promoting effect

Molecule: [Cl-].[Cl-].[Co+2] [CoCl2]
effect of divalent metal cations on proteolysis (densitometry of intact IGFBP-1) ([1]; pH 7): inhibited

Molecule: [Cl][Cu][Cl] [CuCl2]
effect of divalent metal cations on proteolysis (densitometry of intact IGFBP-1) [1, 7]: inhibited

Molecule: O=C(O)CN(CCN(CC(=O)O)CC(=O)O)CC(=O)O [EDTA]
effect on the degree of IGFBP-1 degradation [1]: no effect

Molecule: O=C(O)CN(CCOCCOCCN(CC(=O)O)CC(=O)O)CC(=O)O [EGTA]
effect on the degree of IGFBP-1 degradation ([1]; data not shown): no effect

Molecule: [Cl][Ni][Cl] [NiCl2]
effect of divalent metal cations on proteolysis (densitometry of intact IGFBP-1) [1, 7]: inhibited

Molecule: O=S(=O)(F)Cc1ccccc1 [PMSF]
effect on protease activity in urine ([1]; 10 mM, pH 7, 0.5 μL urine, 2 h, 37 C): inhibited

Molecule: Cc1ccc(S(=O)(=O)N[C@@H](CCCCN)C(=O)CCl)cc1 [TLCK]
effect on proteolysis in urine ([1]; concentration not given): did not

Molecule: Cc1ccc(S(=O)(=O)N[C@@H](Cc2ccccc2)C(=O)CCl)cc1 [TPCK]
effect on proteolysis in urine ([1]; 1 mM): inhibited

Molecule: CC(C)C[C@H](NC(=O)[C@@H](NC(=O)N[C@@H](Cc1ccccc1)C(=O)O)[C@@H]1CCN=C(N)N1)C(=O)N[C@H](C=O)Cc1ccccc1 [chumostatin]
effect on protease activity in urine ([1]; 10 μM, pH 7, 0.5 μL urine, 2 h, 37 C): inhibited

effect on acid-activated urinary IGFBP-1 protease activity [2]: inhibits
effect on neutral urinary IGFBP-1 protease activity [3]: not the neutral activity
Molecule: CC(C)CC(=O)N[C@H](C(=O)N[C@H](C(=O)N[C@@H](CC(C)C)[C@@H](O)CC(=O)N[C@@H](C)C(=O)N[C@@H](CC(C)C)[C@@H](O)CC(=O)O)C(C)C)C(C)C [pepstatin, pepstatin A] (Isovaleryl-VV[Sta]A[Sta]-OH)

Molecule: IGF-I: recombinant human insulin-like growth factor I
effect of peptides on IGFBP-1 proteolysis [1]: Partial inhibition

Molecule: IGF-II: human insulin-like growth factor II
effect of peptides on IGFBP-1 proteolysis [1]: Partial inhibition
stimulation of 3H-thymidine incorporation [4]: 2 fold
stimulation of glucose uptake [5]: more than 2 fold

Molecule: aprotinin
effect of aprotinin on protease activity (IGFBP-1 proteolysis) ([1]; 100 μM aprotinin (FIG. 7A), pH 7, different experiments): either without effect, or even promoted protease activity; also recorded: increasing IGFBP-1 proteolysis

Molecule: cyclohexylacetyl-Phe-Arg-Ser-Val-Gln [kallikrein inhibitor]
effect on protease activity in urine ([1]; 100 μM, pH 7, 0.5 μL urine, 2 h, 37 C): inhibited

Molecule: des(1-3)-IGF-I: truncated IGF-I from GroPep
effect of peptide on IGFBP-1 proteolysis [6]: no effect

Molecule: insulin
effect of peptides on IGFBP-1 proteolysis [1]: no effect
